Reference: patent US6761694B2, “Methods for measuring retinal damage” (Allergan, Inc., priority 2001, dated 2004)

Tested on: retina exposed to laser (secondary retinal damage)
Experiment: Retinal thickness analysis (Retinal Thickness Analyzer) after laser photocoagulation in a patient with AMD
Assay type: in vivo, human
Source text: In order to calculate the slope of retinal thickness, the thickness of the retina must be measured. In practicing the methods of the invention, it is preferred that the retinal thickness be measured in situ as compared to histologically. Retinal thickness may be measured using publicly available devices generally configured to image optical cross-sections of the retina, and to digitally process the cross-sections to result in a measurement of retinal thickness. One such device used to practice the methods of the invention is the Retinal Thickness Analyzer ([…] Technology, Ltd., […] Zion, Israel) as disclosed in U.S. Pat. No. 6,267,477, entitled, “Three dimensional imaging apparatus and a method for use thereof”. Another device that may be used to measure retinal thickness in the methods of the invention is the Optical Coherence Tomography (OCT) Scanner (Humphrey Instruments, Inc., San Leandro, Calif.) and as described in U.S. Pat. No. 5,491,524, entitled, “Optical coherence tomography corneal mapping apparatus”. Another device that may be used to measure retinal thickness in practicing the methods of the invention is the Heidelberg Retina Tomograph (HRT; Heidelberg Engineering GmbH, Heidelberg, Germany) and as described in U.S. Pat. No. 5,170,276, entitled, “Apparatus for imaging an object”. The images obtained by such devices can then be examined, and the slope of retinal thickness measured. The slope of retinal thickness may be calculated as a ratio by measuring the change in retinal thickness as a function of distance between two or more points of the retina near the lesion site. The human retina is approximately 200-250 μm thick. Using the devices described above, it is possible to optically cross-section the retina in 20 μm increments. If the retinal thickness changes by 200 μm over a distance of 20 μm, the corresponding slope of retinal thickness would be 10. Similarly, if the retinal thickness changes 200 μm over a distance of 2 mm, the corresponding slope would be 0.1. In the foregoing examples, a slope of 10 indicates the retinal damage is less than the retinal damage where the slope of damage is 0.1. Persons skilled in the art will appreciate that the slope of retinal thickness may be calculated over any number of distances, and that the smallest distance is only limited by the resolution of the devices used to practice the methods of the invention. A person presents with blurred vision in their right eye with particular distorted images near the middle of their visual field. An ophthalmologist conducts an eye exam. […] The ophthalmologist detects the presence of an abnormal amount of soft drusen. A diagnosis of age-related macular degeneration (AMD) is made. […]

In the case of CC12CC3CC(C)(C1)CC(N)(C3)C2 [memantine], the “secondary damage by retinal thickness analysis” value (memantine 0.25% w/v topically prior to laser treatment, after the surgery) is reported as “little secondary damage”, the “visual impairment on additional laser treatments” value (memantine 0.25% w/v topically, continued laser treatments) is reported as “without significant visual impairment” and the “change in retinal thickness” value (over a distance of about 40 μm, memantine 0.25% w/v topically prior to laser treatment, twenty-one days after laser surgery) is reported as 200 μm. For the same compound, the “slope of damage (slope of retinal thickness)” value (person with AMD, memantine 0.25% w/v topically prior to laser photocoagulation, scan twenty-one days after laser surgery) was “approximately 8”.
